Experimental data: US20070219214A1, “Dual NK2/NK3-antagonists, pharmaceutical compositions comprising them, and processes for their preparation” (Solvay pharmaceuticals GmbH, priority 2006, published 2007)

How the values were obtained:
human NK2-receptor [1] = target: T1, human NK2-receptor (Homo sapiens, UniProt P21452); assay: Binding potency of the test substances to NK2-receptors in vitro ([3H]-SR 48968 displacement); design: expressed in transfected cells; host or cells: CHO cells (membrane preparation); conditions: human NK2-receptor in CHO cell membranes, [3H]-SR 48968 (saredutant), average of at least three measurements
T1 sequence (P21452 1-398): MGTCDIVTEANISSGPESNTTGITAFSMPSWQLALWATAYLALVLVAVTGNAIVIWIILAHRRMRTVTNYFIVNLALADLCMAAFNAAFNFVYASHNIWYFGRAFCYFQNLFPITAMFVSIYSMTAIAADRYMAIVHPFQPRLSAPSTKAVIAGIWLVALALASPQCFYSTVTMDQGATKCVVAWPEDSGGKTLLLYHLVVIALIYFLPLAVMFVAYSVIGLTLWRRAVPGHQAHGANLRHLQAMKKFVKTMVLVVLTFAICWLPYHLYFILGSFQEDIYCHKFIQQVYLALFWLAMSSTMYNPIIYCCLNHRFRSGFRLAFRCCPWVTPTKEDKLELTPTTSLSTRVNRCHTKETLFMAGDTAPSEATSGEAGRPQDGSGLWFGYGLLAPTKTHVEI
In short: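 Membranes from CHO cells stably expressing the receptor were incubated with [3H]-saredutant plus test compound, then filtered and counted by liquid scintillation. Nonspecific binding defined with 0.1 μmol/l unlabeled saredutant. IC50 from displacement converted to Ki via Cheng-Prusoff and reported as pKi, averaged over measurements.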

NK3-receptor = target: T2, NK3-receptor (Cavia porcellus, UniProt P30098); assay: NK-3-receptor-antagonistic effectiveness in vivo, senktide-induced hypertension in guinea pigs; conditions: guinea pig, iv; read-out: ID50 (iv), inhibition of blood pressure
T2 construct: from tissue; host or cells: whole animal (Dunkin Hartley guinea pigs), in vivo
T2 sequence (P30098 1-440): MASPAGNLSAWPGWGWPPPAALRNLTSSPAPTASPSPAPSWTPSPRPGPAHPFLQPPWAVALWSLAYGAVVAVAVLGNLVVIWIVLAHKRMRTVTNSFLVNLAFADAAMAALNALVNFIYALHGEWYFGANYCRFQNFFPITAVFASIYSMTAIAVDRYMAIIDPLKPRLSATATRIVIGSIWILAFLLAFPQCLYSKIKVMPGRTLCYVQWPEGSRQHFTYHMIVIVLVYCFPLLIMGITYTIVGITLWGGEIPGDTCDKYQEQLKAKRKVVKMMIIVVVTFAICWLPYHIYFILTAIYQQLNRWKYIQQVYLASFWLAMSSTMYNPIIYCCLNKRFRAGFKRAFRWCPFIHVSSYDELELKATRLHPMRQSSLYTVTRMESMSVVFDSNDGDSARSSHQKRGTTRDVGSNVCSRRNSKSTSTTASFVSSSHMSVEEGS
Protocol: 9. Determination of the NK-3-Receptor-Antagonistic Effectiveness of the Test Substances In Vivo (Reduction of Blood Pressure in Guinea-Pigs with Senktide-Induced Hypertension)
NK3 agonists increase the blood pressure in guinea pigs. The senktide-induced hypertension can be antagonized by administering compounds with NK3-antagonistic properties. Measuring the level of hypertension is indicative of the degree of activity of the test compounds. The effect of the tested compound is assessed in the same experiment to exclude an additional hypertensional effect.
Male Dunkin Hartley guinea pigs with a body weight between 450 and 550 g were anesthetized with Ketamin (200 mg/kg i.m.; Aescoket 10%) and the left carotid artery and left jugular vein were cannulated for blood pressure measurement and drug application, respectively. The animals were allowed to breathe spontaneously. Blood pressure was measured with a strain gauge transducer connected to a computer via an amplifier.
For oral administration, vehicle (1% methylcellulose) or test compound was administered in a dose volume of 5 ml/kg. Forty five minutes thereafter, anesthesia was induced and the carotid artery and jugular vein were cannulated.
For intravenous administration, the test compounds were dissolved in 40% hydroxypropyl-β-cyclodextrine (HPCD) containing 10% DMSO, diluted with saline and administered intravenously in cumulative dose ranges. A vehicle group of animals received the corresponding HPCD/DMSO solutions instead of the test compound. For oral administration, the test compound was suspended in 1% methylcellulose. A vehicle group of animals received the corresponding […] of the test compound.

human NK3 receptor [2] = target: T3, human NK3 receptor (Homo sapiens, UniProt P29371); assay: Functional cellular test, Ca2+ measurements using aequorin for NK3 activity; format: cell-based; design: expressed in transfected cells; host or cells: cell line co-expressing mitochondrially targeted apoaequorin (CHO according to b76/b77); conditions: for pA2 data for NK3: cell line with human NK3 receptor and apoaequorin, agonist senktide 5x10-8 M
T3 sequence (P29371 1-465): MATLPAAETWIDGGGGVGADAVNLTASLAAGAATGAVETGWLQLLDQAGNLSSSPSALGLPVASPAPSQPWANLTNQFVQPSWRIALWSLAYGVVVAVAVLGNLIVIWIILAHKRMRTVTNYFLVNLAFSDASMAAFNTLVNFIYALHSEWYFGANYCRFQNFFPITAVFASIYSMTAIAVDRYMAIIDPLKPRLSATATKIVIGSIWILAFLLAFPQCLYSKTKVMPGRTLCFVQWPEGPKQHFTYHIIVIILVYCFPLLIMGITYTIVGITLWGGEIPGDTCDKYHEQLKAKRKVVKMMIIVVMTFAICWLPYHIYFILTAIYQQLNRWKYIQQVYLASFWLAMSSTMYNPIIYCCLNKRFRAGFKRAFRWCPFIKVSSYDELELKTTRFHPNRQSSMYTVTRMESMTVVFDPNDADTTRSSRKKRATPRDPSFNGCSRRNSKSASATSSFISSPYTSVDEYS

human NK2-receptor [3] = target: T1, human NK2-receptor; assay: Functional cellular test, Ca2+ measurements using FLIPR for NK2 activity; conditions: for pA2 data for NK2: CHO cells, human NK2, FLIPR Ca2+, agonist NKA 10^-7 M;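 for all read-outs here: CHO cells stably expressing the human receptor, loaded with a calcium dye, antagonist inhibition of ligand-evoked intracellular calcium rise read as peak fluorescence change on FLIPR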
Protocol: Functional Cellular Tests of the NK1-, NK2- and NK3-Antagonism
Functional cellular tests of the antagonistic effect of the compounds of the present invention on the human tachykinin receptors were performed in CHO cells expressing the recombinant human NK1, NK2 or NK3-receptor. In these tests the inhibition of ligand-induced increase in mobilization of intracellular calcium and inhibition of ligand-induced phosphorylation of mitogen activated protein kinase (MAPK) were determined, which can be used as a measure of functional activity of tachykinin-antagonists. Additionally, the antagonistic properties of reference compounds on the different tachykinin receptors were characterized for comparison.
The effects of test compounds were assessed using Chinese hamster ovary (CHO) fibroblast cells, stably expressing cloned human NK1, NK2 or NK3-receptors. The NK receptor is coupled to Gq. The activation of the Gq protein by ligand binding to the receptor leads to a mobilization of intracellular calcium and phosphorylation of MAPK. Both systems were used to determine functional effects of the test compounds.
Ca^2+ Measurements Using FLIPR for NK1 and NK2 Activity
For tests, cells were seeded 24 hours prior to the experiment into black 96-well microplates. The cell density was 2.2×10^4 cells/well. All steps were done under sterile conditions. In order to observe changes in intracellular calcium levels, cells were loaded with a calcium-sensitive dye. This dye (FLUO-4, from Molecular Probes) excites at 488 nm, and emits in the 500 nm to 560 nm range, only if a complex with calcium is formed. For the dye loading the growth-medium was aspirated out of the well without disturbing the confluent cell layer and 100 μl loading medium (HBSS, 4 μM FLUO-4, 0.005% (w/v) pluronic acid, 2.5 mM probenecid, 20 mM HEPES, pH 7.4) was dispensed into each well using an automatic pipettor system (Multidrop, Labsystems). Pluronic acid was added to increase dye solubility and dye uptake into the cells, whereas probenecid, an anion exchange inhibitor, was added to the loading medium to increase dye retention in the cells. The cells were incubated in a 5% CO2 incubator at 37° C. for 40 minutes. After dye loading, the cells were washed three times with wash-buffer (HBSS, 2.5 mM probenecid, 20 mM HEPES, pH 7.4) to reduce basal fluorescence. In the last washing step the buffer was aspirated and replaced with 100 μl washing buffer. […] The FLIPR setup parameters were set to 0.4 sec exposure length, filter 1, 50 μl fluid addition, pipettor height at 125 μl, dispense speed 40 μl/sec without mixing. Maximal fluorescence changes were obtained using the statistic function of the FLIPR software, and data plotted using GraphPad Prism 4. All points were expressed as a percentage inhibition of the control agonist. IC50 values were determined using sigmoidal dose-response curve fitting. Antagonist potencies (pA2) values were calculated using equation: pA2=−log(IC50/(1+[L]/EC50)),

NK2-receptor = target: T4, NK2-receptor (Cavia porcellus, UniProt Q64077); assay: NK2-receptor-antagonistic effectiveness in vivo, NKA-induced late hypotension, bronchoconstriction and colonic pressure in anaesthetised guinea pigs; conditions: guinea pig; for ED50 iv after 1 min (cumulative), NK2 (bronchoconstriction) / ED50 iv after 1 min (cumulative), NK2 (colonic motility) / ED50 iv after 1 min (cumulative), NK2 (late hypotension): intravenous administration
T4 construct: from tissue; host or cells: whole animal (Pirbright-White guinea pigs), in vivo
T4 sequence (Q64077 1-402): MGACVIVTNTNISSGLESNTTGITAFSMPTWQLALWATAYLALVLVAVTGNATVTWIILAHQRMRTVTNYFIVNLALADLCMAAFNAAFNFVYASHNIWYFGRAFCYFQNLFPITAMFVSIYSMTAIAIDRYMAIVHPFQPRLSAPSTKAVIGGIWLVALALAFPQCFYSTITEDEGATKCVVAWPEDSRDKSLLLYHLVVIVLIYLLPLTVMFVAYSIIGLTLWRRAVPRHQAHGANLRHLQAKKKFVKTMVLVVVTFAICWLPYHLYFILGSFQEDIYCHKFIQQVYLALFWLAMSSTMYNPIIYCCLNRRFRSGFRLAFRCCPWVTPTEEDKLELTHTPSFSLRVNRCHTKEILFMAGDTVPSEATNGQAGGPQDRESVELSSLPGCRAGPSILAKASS
Text: (§1) 10. Determination of the NK1- and NK2-Receptor-Antagonistic Effectiveness of the Test Substances In Vivo
(§2) The NK1- and NK2-antagonistic activities of the test substances were investigated in anaesthetised guinea pigs in each case after intravenous (=i.v.) and oral (=p.o.) administration in vivo. With the present test model it is possible to detect both NK2-antagonistic effects in three different organ systems (respiratory tracts, colon and circulation) and NK1-antagonistic effects (rapid drop in blood pressure) in an animal simultaneously.
(§3) Pirbright-White guinea pigs of a body weight of 500-700 g were anaesthetised with ketamine/xylazine (67/13 mg/kg subcutaneously, initial dose, further doses administered as required). The animals were provided with an intravenous catheter in order to administer the substance and an intra-arterial catheter to measure the blood pressure. The animals were artificially ventilated via a tracheal cannula and the respiratory pressure was recorded by means of a pressure transducer. A balloon was introduced into the distal colon of the animals for manometric recording of colon motility by means of a pressure transducer. Blood pressure, heart rate, respiratory pressure and colonic pressure were measured continuously for each animal and plotted on a recorder and by means of a digital data-processing system. […] The second phase of delayed hypotension (=phase of maximum hypotension after 2-5 min.) on the other hand is mediated via NK2-receptors, since they can be blocked by specific NK2-receptor antagonists.
(§4) These ED50 values obtained from cumulative dose effect curves are plotted in Table 13.

human NK1-receptor [4] = target: T5, human NK1-receptor (Homo sapiens, UniProt P25103); assay: Functional cellular test, Ca2+ measurements using FLIPR for NK1 activity; format: cell-based; design: expressed in transfected cells; host or cells: CHO fibroblast cells; conditions: CHO cells, human NK1, FLIPR Ca2+, agonist substance P 10^-8 M
Text: The NK receptor is coupled to Gq.
All steps were done under sterile conditions.

human NK1-receptor [5] = target: T5, human NK1-receptor; assay: Binding potency of the test substances to NK1-receptors in vitro ([3H]-Substance P displacement); conditions: human NK1-receptor in CHO cell membranes, average of at least three measurements
Protocol: 1. Determination of the Binding Potency of the Test Substances to NK1-Receptors in Vitro
The affinity of test compounds for NK1-receptors can be determined by measuring the ability of the test compound to displace a radiolabeled ligand from its specific binding site. The tests were performed at Solvay Pharmaceuticals, Weesp, The Netherlands.
Separation of bound radioactivity from free radioactivity was done by filtration through glass fiber filters (Packard GF/B) with several washings with ice-cold buffer solution. Bound radioactivity was measured with a liquid scintillation counter (total binding).
The inhibition constant (Ki) was calculated according to the Cheng-Prusoff equation, and listed as its negative logarithmic value (pKi). The pKi value describes the potency of a test compound to bind to a receptor.

NK1-receptor = target: T6, NK1-receptor (Cavia porcellus, UniProt P30547); assay: NK1-receptor-antagonistic effectiveness in vivo, NKA-induced early hypotension in anaesthetised guinea pigs; conditions: guinea pig, NKA 200 pmol/animal i.v.; for ED50 iv after 1 min (cumulative), NK1 (early hypotension): intravenous administration
T6 construct: from tissue; host or cells: whole animal (Pirbright-White guinea pigs), in vivo
Text: as §1, §2, §3, §4

human NK3 receptor [6] = target: T3, human NK3 receptor; assay: Binding potency of the test substances to NK3-receptors in vitro ([3H]-SR 142801 displacement); design: expressed in transfected cells; host or cells: CHO cells (membrane preparation); conditions: human NK3-receptor in CHO cell membranes, [3H]-SR 142801 (osanetant); average of at least three measurements
In short: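 [3H]-osanetant displacement on membranes from CHO cells stably expressing the human receptor, with bound ligand separated by filtration and counted by scintillation. Nonspecific binding defined with 1 μmol/l unlabeled osanetant. IC50 converted to Ki by Cheng-Prusoff and reported as pKi, averaged over measurements.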

[7] = NKA 200 pmol/animal i.v., oral administration

T5 sequence (P25103 whole entry): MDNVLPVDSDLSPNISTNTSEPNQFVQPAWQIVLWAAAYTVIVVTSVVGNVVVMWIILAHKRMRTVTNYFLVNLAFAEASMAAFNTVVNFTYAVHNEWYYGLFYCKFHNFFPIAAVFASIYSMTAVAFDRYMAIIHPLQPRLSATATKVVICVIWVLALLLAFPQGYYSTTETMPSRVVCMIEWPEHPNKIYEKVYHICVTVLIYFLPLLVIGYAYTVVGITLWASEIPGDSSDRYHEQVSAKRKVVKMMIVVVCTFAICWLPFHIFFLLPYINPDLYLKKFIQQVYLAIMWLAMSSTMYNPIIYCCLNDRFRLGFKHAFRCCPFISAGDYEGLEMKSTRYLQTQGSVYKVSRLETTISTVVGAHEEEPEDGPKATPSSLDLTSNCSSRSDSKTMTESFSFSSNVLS
T6 sequence (P30547 whole entry): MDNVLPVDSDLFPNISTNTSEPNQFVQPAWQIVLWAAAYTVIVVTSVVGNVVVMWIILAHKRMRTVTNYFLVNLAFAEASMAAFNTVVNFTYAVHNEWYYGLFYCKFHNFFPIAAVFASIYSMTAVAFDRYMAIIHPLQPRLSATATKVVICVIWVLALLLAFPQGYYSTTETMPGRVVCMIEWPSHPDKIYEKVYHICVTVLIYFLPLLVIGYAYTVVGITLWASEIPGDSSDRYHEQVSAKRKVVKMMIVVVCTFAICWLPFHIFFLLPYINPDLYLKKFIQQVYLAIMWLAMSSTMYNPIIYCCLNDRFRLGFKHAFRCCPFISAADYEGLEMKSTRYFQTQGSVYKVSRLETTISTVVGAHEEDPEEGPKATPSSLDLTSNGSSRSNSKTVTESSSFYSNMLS

Row | SMILES | Ki (human NK2-receptor [1]; read-out: pKi, binding potency to NK2-receptors (converted)) [pM] | ED50 (NK3-receptor) [mg/kg] | Kb (human NK3 receptor [2]; read-out: pA2 data for NK3 (converted)) [pM] | Kb (human NK2-receptor [3]) [pM] | ED50 iv after 1 min (cumulative), NK2 (bronchoconstriction) (NK2-receptor; NKA 200 pmol/animal i.v.) [µmol/kg] | ED50 iv after 1 min (cumulative), NK2 (colonic motility) (NK2-receptor; NKA 200 pmol/animal i.v.) [µmol/kg] | ED50 iv after 1 min (cumulative), NK2 (late hypotension) (NK2-receptor; NKA 200 pmol/animal i.v.) [µmol/kg] | pA2 data for NK1 (human NK1-receptor [4]) | pA2 data for NK3 (human NK3 receptor [2]) | pKi, binding potency to NK1-receptors (human NK1-receptor [5]) | pA2 data for NK2 (human NK2-receptor [3]) | ED50 iv after 1 min (cumulative), NK1 (early hypotension) (NK1-receptor) [µmol/kg] | pKi, binding potency to NK3-receptors (human NK3 receptor [6]) | ED50 AUC1-180 min oral, NK2 (bronchoconstriction) (NK2-receptor; [7]) [µmol/kg] | ED50 AUC1-180 min oral, NK2 (colonic motility) (NK2-receptor; [7]) [µmol/kg] | ED50 AUC1-180 min oral, NK2 (late hypotension) (NK2-receptor; [7]) [µmol/kg] | oral activity on the NK2, in words (NK2-receptor; oral administration) | ED50 AUC1-180 min oral, NK1 (early hypotension) (NK1-receptor; oral administration) [µmol/kg] | pKi, binding potency to NK2-receptors (human NK2-receptor [1])
1 | CNC(=O)C1(N2CCCCC2)CCN(CC[C@H](CN(C)C(=O)c2ccccc2)c2ccc(Cl)c(Cl)c2)CC1 [compound 2] | 398 | 1.98 | 31600 | 501 | – | – | – | – | – | – | – | – | – | – | – | – | – | – | –
2 | CN(C)C(=O)C1(N2CCCCC2)CCN(CC[C@H](CN(C)C(=O)c2cc(F)cc(F)c2)c2ccc(Cl)c(Cl)c2)CC1 [compound 9] | – | – | – | – | 0.058 | 0.053 | 0.108 | 8.0 | 8.0 | 7.6 | 8.6 | >1.462 | 8.4 | – | – | – | – | – | –
3 | CN(C)C(=O)C1(N2CCCCC2)CCN(CC[C@H](CN(C)C(=O)c2ccc(F)c(Cl)c2)c2ccc(Cl)c(Cl)c2)CC1 [compound 8] | – | – | – | – | 0.731 | 0.294 | 1.113 | 7.1 | 8.4 | 7.4 | 8.6 | >1.462 | – | >3.2 | >3.2 | >3.2 | active orally on the NK2 | >3.2 | –
4 | CN(C)C(=O)C1(N2CCCCC2)CCN(CC[C@H](CN(C)C(=O)c2ccc(F)c(F)c2F)c2ccc(Cl)c(Cl)c2)CC1 [compound 16] | – | – | – | – | 0.38 | 0.132 | 0.34 | – | 7.9 | – | 8.3 | >1.462 | 7.8 | – | – | – | – | – | 9.0
